Data from patent US20240425865A1, “METHODS FOR TREATING CELLULAR INFLAMMATION INDUCED BY AFB1” (priority 2023, published 2024).

Legend:
3′-UTR of CXCR4 gene = experiment: luciferase reporter (pMIR) with CXCR4 3′-UTR, co-transfection in MPC-5 cells; format: cell-based; conditions: FIG. 1C
Source text: To validate the binding of miR-9 to the CXCR4 gene, 3′-UTR targeting sequences of a wild-type CXCR4 gene and a mutant-type CXCR4 gene (target site ACCAAAG was mutated to ACGGCGC) were constructed into a luciferase reporter vector pMIR to obtain recombinant luciferase reporter vectors of the wild-type and the mutant-type. Subsequently, miR-9 and negative control miRNAs (a sequence of a primer as shown in SEQ ID NO.7 and SEQ ID NO.8) were co-transfected with the recombinant luciferase reporter vector of the wild-type or the mutant type into MPC-5 cells, and results were as shown in FIG. 1C. […] The control miRNAs were unable to targetedly bind to either the 3′-UTR of the wild-type CXCR4 or the 3′-UTR of the mutant-type CXCR4, and the fluorescence values were […].

glomeruli = experiment: rAAV9-CAG-GFP-miR-9 transfection of AFB1-treated mouse, glomeruli readouts; format: in vivo; conditions: miR-9 increased via rAAV9-CAG-GFP-miR-9
Protocol: Relevant agents include fluorescently labeled Gr-1 antibody (CST), fluorescently labeled IFN-γ antibody (CST) or CD86 antibody (fluorescent secondary antibody: goat anti-rabbit IgG) (Abcam) and CD68 antibody (fluorescently secondary antibody: goat anti-rabbit IgG) (Abcam), and the rest of the same agents as above.
To understand the ability of miR-9 in down-regulating the CXCR4/TXNIP/NLRP3 inflammatory vesicle pathway during podocytes inflammation induced by AFB1, a 4-week-old mouse was treated with AFB1 of 0.75 mg/kg, and rAAV9-CAG-GFP-miR-9 or CAG-GFP luciferase control vector was transfected into the treated mouse, and an expression level of miR-9 in glomeruli after transfection was detected by qRT-PCR.

RelA / miR-9 promoter = format: cell-based
miR-9 [1] = experiment: qRT-PCR of miR-9 in MPC-5 treated with AFB1; format: cell-based
Protocol: • (1) glomeruli (n=6) were treated with AFB1 of 0.75 mg/kg at 0, 2, and 4 weeks; • (2) MPC-5 (n=6) was treated with AFB1 of 5, 10, and 20μ M; • (3) Relative expression levels of miR-9 in the glomeruli treated with (1) and in the MPC-5 treated with (2) were detected by adopting a qRT-PCR manner, respectively. u6 RNA was used as an internal reference for miRNA, a sequence of a forward primer of U6 gene was shown in SEQ ID NO.1 in Table 1, and a sequence of a reverse primer of U6 gene was shown in SEQ ID NO.2. A sequence of a forward primer of miR-9 was shown in SEQ ID NO.3, a sequence of a reverse primer of miR-9 was shown in SEQ ID NO.4, and a sequence of a primer of a stem-loop sequence that is used to increase a length of a miR-9 reverse transcription product was shown in SEQ ID No.45.

RelA [2] = conditions: mouse, in vivo, 0.75 mg/kg
miR-9 [3] = conditions: mouse, in vivo, 0.75 mg/kg
RelA [4] = experiment: Western blot of RelA in MPC-5 cells treated with AFB1; format: cell-based
Protocol: To investigate whether RelA is involved in the reduction of the expression level of miR-9 in glomerular podocytes by AFB1, relative protein expression levels of RelA in glomeruli at 0, 2, and 4 weeks treated with AFB1 of 0.75 mg/kg, and MPC-5 cells treated with AFB1 of 5, 10, 20 uM were detected, respectively, by adopting a Western blot manner.

RelA / TRIM7 = RelA / TRIM7 (Mus musculus, UniProt Q04207); format: cell-based
Sequence of RelA / TRIM7 (Q04207 whole entry, looked up): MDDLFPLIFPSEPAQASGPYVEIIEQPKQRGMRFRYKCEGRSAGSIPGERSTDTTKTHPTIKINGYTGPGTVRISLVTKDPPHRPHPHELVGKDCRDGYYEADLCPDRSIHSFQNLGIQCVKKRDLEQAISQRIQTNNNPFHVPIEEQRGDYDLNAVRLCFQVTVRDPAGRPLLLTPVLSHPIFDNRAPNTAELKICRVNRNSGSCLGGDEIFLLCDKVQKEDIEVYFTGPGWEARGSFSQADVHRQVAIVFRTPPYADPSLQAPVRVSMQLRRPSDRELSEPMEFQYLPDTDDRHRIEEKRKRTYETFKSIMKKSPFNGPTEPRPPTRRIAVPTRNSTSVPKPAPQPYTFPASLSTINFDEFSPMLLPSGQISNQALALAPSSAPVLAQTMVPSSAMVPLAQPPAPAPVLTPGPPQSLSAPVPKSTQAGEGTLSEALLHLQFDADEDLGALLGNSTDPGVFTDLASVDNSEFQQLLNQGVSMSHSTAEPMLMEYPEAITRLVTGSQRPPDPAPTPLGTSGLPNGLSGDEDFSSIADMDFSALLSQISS

RelA [5] = target: RelA (Mus musculus, UniProt Q04207); experiment: IP-MS of proteins interacting with RelA in MPC-5 cells; format: cell-based
Sequence of RelA (Mus musculus, UniProt Q04207) (Q04207 whole entry, looked up): as above
Protocol: For the analysis of RelA-binding proteins, IP-MS was used to detect proteins interacting with RelA. After incubating THE MPC-5 cells with RelA antibody overnight at 4° C., MPC-5 lysates were mixed with Protein A/G agarose beads (Amersham Biosciences) and then sodium dodecyl sulfate-polyacrylamide gel electrophoresis (SDS-PAGE) analysis and Caumas blue staining were performed for isolation of target proteins. Then, protein samples were sent to Suzhou Mass-elife Biotechnology Co. Ltd (Suzhou, China) for further analysis. For liquid chromatography-mass spectrometry (LC-MS) analysis, proteins were re-solubilized in a mixture of acetonitrile and water, and sample data was analyzed using an ultra-high-performance liquid chromatography (UHPLC) system coupled to a high-resolution mass spectrometer in Mass-elife Biotech Co. Ltd. of Suzhou (Suzhou, China). Identified proteins were analyzed for abundance using Byonic 2.13.17 (Protein Metrics, California, USA) to retrieve MS raw files on the uniport human protein database.

Substance: miR-9: mmu-miR-9-5p MIMAT0000142; nucleotide sequence shown in SEQ ID No. 5 (UCUUUGGUUAUCUAGCUGUAUGA; chemistry not given here)
- luciferase fluorescence values, wild-type CXCR4 3′-UTR reporter (3′-UTR of CXCR4 gene; co-transfected into MPC-5 cells): relative decrease
- luciferase fluorescence values, mutant-type CXCR4 3′-UTR reporter (3′-UTR of CXCR4 gene; target site ACCAAAG mutated to ACGGCGC, MPC-5 cells): unchanged
- secretion of IL-1β in glomeruli (glomeruli; AFB1-treated mouse, ELISA): decreased secretion
- secretion of IL-6 in glomeruli (glomeruli; AFB1-treated mouse, ELISA): decreased secretion
- secretion of TNF-α in glomeruli (glomeruli; AFB1-treated mouse, ELISA): decreased secretion
- inflammatory cell infiltration in glomeruli (glomeruli; AFB1 for 4 weeks, HE staining and flow cytometry): attenuated inflammatory cell infiltration

Substance: Aflatoxin B1 [AFB1]
- RelA binding in the miR-9 promoter region (RelA / miR-9 promoter): reduced RelA binding
- expression level of miR-9 in cells (MPC-5) (miR-9 [1]): significantly reduced
- p-RelA/RelA in glomeruli (RelA [2]): significant reduction
- expression level of miR-9 in glomeruli (miR-9 [3]): significantly reduced
- p-RelA/RelA in MPC-5 cells (RelA [4]): significant reduction
- binding of RelA and TRIM7 (RelA / TRIM7): promoted the binding
- expression level of RelA protein (RelA / TRIM7): down-regulated
- ubiquitination of RelA (RelA / TRIM7): increased the ubiquitination
- TRIM7 among RelA-interacting proteins (RelA [5]): significantly enriched
